Assay results taken from patent US9776962B2, “Aromatic compounds with GPR40 agonistic activity” (TAKEDA PHARMACEUTICAL COMPANY LIMITED, priority 2013, dated 2017).
Marks after values point to notes of the source that are not given here.

Tests used:
N-STZ-1.5 rats = experiment: Oral glucose tolerance test using N-STZ-1.5 rats (glucose-lowering effects and insulinotropic action); type: in vivo, rat; details: 3 mg/kg body weight oral, 1 hr before glucose loading 1.5 g/kg, male N-STZ-1.5 rats, n=6; for blood glucose decrease rate (%): glucose AUC (0-60 min) vs control group; for insulin increase rate (fold): insulin AUC (0-60 min) test group/control group
Procedure: The glucose-lowering effects and insulinotropic action of the compound of the present invention were evaluated by an oral glucose tolerance test using N-STZ-1.5 rats.
Streptozotocin (120 mg/kg) was subcutaneously administered to 1 or 2 days-old male Wistar Kyoto rats to prepare type 2 diabetic model N-STZ-1.5 rats. The rats were allowed free access to standard laboratory chow diet (CE-2, CLEA Japan, Inc.).
Male N-STZ-1.5 rats (25-week-old) were fasted for 15-17 hr, and the body weight was measured. Heparin (Ajinomoto Co., Inc.) as an anticoagulant and aprotinin (SIGMA) as a protease inhibitor were added, blood samples were collected from tail vein. The blood was centrifuged, the concentrations of glucose and triglyceride in plasma were measured, and the rats were divided into each group (n=6) based on these parameters. A 0.5% methylcellulose (control group) or a 0.5% methylcellulose suspension containing a test compound (3 mg/kg body weight) was orally administered to the rats at 5 ml/kg and, 1 hr after the administration, glucose solution (Otsuka Pharmaceutical Co., Ltd.) was orally administered at 1.5 g/7.5 ml/kg. Immediately before (0 min value) and 10, 30 and 60 min after the glucose loading, blood was drawn from the tail vein, centrifuged, and the concentrations of glucose and insulin in plasma were measured. The glucose and triglyceride concentrations were measured by automatic analysis apparatus 7180 (Hitachi, Ltd.), and the insulin concentration was measured by rat insulin radioimmunoassay kit (MIllipore). The area under glucose curve (AUC) and insulin AUC were calculated using the following formulas, and the blood glucose decrease rate (%) and insulin increase rate (fold) were calculated by the following formulas from the obtained AUCs. A statistical significant difference from the control group was analyzed by the Dunnett's test or Steel's test.
Glucose AUC (0-60 Min): {(0 min glucose in plasma)+(10 min glucose in plasma)}×10/2+{(10 min glucose in plasma)+(30 min glucose in plasma)}×20/2+{(30 min glucose in plasma)+(60 min glucose in plasma)}×30/2 insulin AUC (0-60 Min): {(0 min insulin in plasma)+(10 min insulin in plasma)}×10/2+{(10 min insulin in plasma)+(30 min insulin in plasma)}×20/2+{(30 min insulin in plasma)+(60 min insulin in plasma)}×30/2 Blood Glucose Decrease Rate (%): [(test compound administration group glucose AUC/control group glucose AUC)−1]×100 insulin Increase Rate (Fold):
test compound administration group insulin AUC/control group insulin AUC

human GPR40 = target: T1, human GPR40 (Homo sapiens, UniProt O14842); experiment: Evaluation of human GPR40 agonist activity with increase in intracellular Ca2+ concentration as an index (FLIPR); type: cell-based; details: test compound 1 μM; CHO(dhfr−) cells stably expressing human GPR40; 100% = 10 μM compound of Example 153, 0% = DMSO
T1 construct: expressed in transfected cells
T1 sequence (O14842 whole entry): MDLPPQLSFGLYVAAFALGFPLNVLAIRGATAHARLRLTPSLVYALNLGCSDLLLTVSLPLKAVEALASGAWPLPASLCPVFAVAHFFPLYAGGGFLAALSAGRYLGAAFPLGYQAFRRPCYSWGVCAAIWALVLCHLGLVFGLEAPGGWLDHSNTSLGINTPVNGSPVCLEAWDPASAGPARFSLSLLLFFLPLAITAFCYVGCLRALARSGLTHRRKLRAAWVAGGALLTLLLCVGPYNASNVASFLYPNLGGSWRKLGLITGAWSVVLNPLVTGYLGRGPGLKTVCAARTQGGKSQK
Summary of the method: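 CHO(dhfr−) cells stably expressing full-length human GPR40 were loaded with Ca2+ probe for 1 h at room temperature, then given test compound at 1 μM final. Fluorescence was followed on FLIPR, with activity scaled to a reference agonist at 10 μM (100%) and DMSO (0%).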

Q: What does the source list for COc1ccc(C(=O)N(CC(C)(C)C)c2cccc(C)n2)c(N2CCC(COc3cc([C@@H](CC(=O)O)C4CC4)ccn3)CC2)c1 [Example 245, (3S)-3-cyclopropyl-3-(2-((1-(2-((2,2-dimethylpropyl)(6-methylpyridin-2-yl)carbamoyl)-5-methoxyphenyl)piperidin-4-yl)methoxy)pyridin-4-yl)propanoic acid]?
A: blood glucose decrease rate (%) (N-STZ-1.5 rats): 44.5^$ %; insulin increase rate (fold) (N-STZ-1.5 rats): 2.1** fold; Activity (human GPR40 agonist activity) (human GPR40): 102%

Q: COc1ccc(C(=O)N(CC(C)(C)C)c2nc(C)cc(C)n2)c(N2CCC(COc3cc([C@@H](CC(=O)O)C4CC4)ccn3)CC2)c1 [Example 246, (3S)-3-cyclopropyl-3-(2-((1-(2-((2,2-dimethylpropyl)(4,6-dimethylpyrimidin-2-yl)carbamoyl)-5-methoxyphenyl)piperidin-4-yl)methoxy)pyridin-4-yl)propanoic acid] was tested. Which “blood glucose decrease rate (%)” value (N-STZ-1.5 rats) did it give?
A: 42.7^$ %

Q: And the “insulin increase rate (fold)” value (N-STZ-1.5 rats)?
A: 2.1** fold

Q: And the activation at 1 µM (human GPR40)?
A: 103%

Q: Which “blood glucose decrease rate (%)” value (N-STZ-1.5 rats) does the source give for COc1ccc(C(=O)N(CC(C)(C)C)c2ccccn2)c(N2CCC(COc3cc([C@@H](CC(=O)O)C4CC4)ccn3)CC2)c1 [Example 247, (3S)-3-cyclopropyl-3-(2-((1-(2-((2,2-dimethylpropyl)(pyridin-2-yl)carbamoyl)-5-methoxyphenyl)piperidin-4-yl)methoxy)pyridin-4-yl)propanoic acid] here?
A: 41.5^$ %

Q: What about the “insulin increase rate (fold)” value (N-STZ-1.5 rats) of the same molecule?
A: 2.0** fold

Q: What about the activation at 1 µM (human GPR40) of the same molecule?
A: 102%

Q: Which results are given for COc1ccc(C(=O)N(CC(C)(C)F)c2cc(C)ccn2)c(N2CCC(COc3cc(C(CC(=O)O)C4CC4)ccn3)CC2)c1 (centres unmarked) [Example 185, 3-cyclopropyl-3-(2-((1-(2-((2-fluoro-2-methylpropyl)(4-methylpyridin-2-yl)carbamoyl)-5-methoxyphenyl)piperidin-4-yl)methoxy)pyridin-4-yl)propanoic acid]?
A: blood glucose decrease rate (%) (N-STZ-1.5 rats): 30.8^$ %; insulin increase rate (fold) (N-STZ-1.5 rats): 1.6 fold

Q: How did the “blood glucose decrease rate (%)” value (N-STZ-1.5 rats) turn out when COc1ccc(C(=O)N(CC(C)(C)C)c2ncccn2)c(N2CCC(COc3cc(C(CC(=O)O)C4CC4)ccn3)CC2)c1 (centres unmarked) [Example 184, 3-cyclopropyl-3-(2-((1-(2-((2,2-dimethylpropyl)(pyrimidin-2-yl)carbamoyl)-5-methoxyphenyl)piperidin-4-yl)methoxy)pyridin-4-yl)propanoic acid] was run?
A: 27.9^$ %

Q: And the “insulin increase rate (fold)” value (N-STZ-1.5 rats)?
A: 1.4 fold

Q: How did the activation at 1 µM (human GPR40) turn out when COc1ccc(C(=O)N(CC(F)F)c2ccccn2)c(N2CCC(COc3cc(C(CC(=O)O)C4CC4)ccn3)CC2)c1 (centres unmarked) [Example 137, 3-cyclopropyl-3-(2-((1-(2-((2,2-difluoroethyl)(pyridin-2-yl)carbamoyl)-5-methoxyphenyl)piperidin-4-yl)methoxy)pyridin-4-yl)propanoic acid] was run?
A: 96%

Q: For CCc1ccc(C(=O)N(CC(C)(C)C)c2cccc(C)n2)c(N2CCC(COc3cccc(C(CC(=O)O)C4CC4)c3)CC2)c1 (centres unmarked) [Example 55, 3-cyclopropyl-3-(3-((1-(2-((2,2-dimethylpropyl)(6-methylpyridin-2-yl)carbamoyl)-5-ethylphenyl)piperidin-4-yl)methoxy)phenyl)propanoic acid], which activation at 1 µM (human GPR40) is on record?
A: 84%

Q: Which activation at 1 µM (human GPR40) does the source give for COc1ccc(C(=O)N(CC2CC2(F)F)c2ccccn2)c(N2CCC(COc3cc(C(CC(=O)O)C4CC4)ccn3)CC2)c1 (centres unmarked) [Example 139, 3-cyclopropyl-3-(2-((1-(2-(((2,2-difluorocyclopropyl)methyl)(pyridin-2-yl)carbamoyl)-5-methoxyphenyl)piperidin-4-yl)methoxy)pyridin-4-yl)propanoic acid] here?
A: 96%

Q: Which activation at 1 µM (human GPR40) does the source give for COc1ccc(C(=O)N(CC2CCC2)c2ccccn2)c(N2CCC(COc3cc(C(CC(=O)O)C4CC4)ccn3)CC2)c1 (centres unmarked) [Example 118, 3-(2-((1-(2-((cyclobutylmethyl)(pyridin-2-yl)carbamoyl)-5-methoxyphenyl)piperidin-4-yl)methoxy)pyridin-4-yl)-3-cyclopropylpropanoic acid] here?
A: 103%

Q: With COc1ccc(C(=O)N(CC(C)(C)C)c2cncc(C(F)(F)F)c2)c(N2CCC(COc3cc(C(CC(=O)O)C4CC4)ccn3)CC2)c1 (centres unmarked) [Example 235, 3-cyclopropyl-3-(2-((1-(2-((2,2-dimethylpropyl) (5-(trifluoromethyl)pyridin-3-yl)carbamoyl)-5-methoxyphenyl)piperidin-4-yl)methoxy)pyridin-4-yl)propanoic acid] as the molecule, how does the activation at 1 µM (human GPR40) read?
A: 91%

Q: With COc1ccc(C(=O)N(CC2CCOCC2)c2ccccn2)c(N2CCC(COc3cc(C(CC(=O)O)C4CC4)ccn3)CC2)c1 (centres unmarked) [Example 196, 3-cyclopropyl-3-(2-((1-(5-methoxy-2-(pyridin-2-yl(tetrahydro-2H-pyran-4-ylmethyl)carbamoyl)phenyl)piperidin-4-yl)methoxy)pyridin-4-yl)propanoic acid] as the molecule, how does the activation at 1 µM (human GPR40) read?
A: 81%

Q: How did the activation at 1 µM (human GPR40) turn out when CCc1ccc(C(=O)N(CC(F)(F)C(F)(F)F)C(C)C)c(N2CCC(COc3cccc(C(CC(=O)O)C4CC4)c3)CC2)c1 (centres unmarked) [Example 54, 3-cyclopropyl-3-(3-((1-(5-ethyl-2-((2,2,3,3,3-pentafluoropropyl)(propan-2-yl)carbamoyl)phenyl)piperidin-4-yl)methoxy)phenyl)propanoic acid] was run?
A: 89%

Q: With Cc1cccc(N(CC(C)(C)C)C(=O)c2ccc(C(N)=O)cc2N2CCC(COc3cc(C(CC(=O)O)C4CC4)ccn3)CC2)n1 (centres unmarked) [Example 261, 3-(2-((1-(5-carbamoyl-2-((2,2-dimethylpropyl)(6-methylpyridin-2-yl)carbamoyl)phenyl)piperidin-4-yl)methoxy)pyridin-4-yl)-3-cyclopropylpropanoic acid] as the molecule, how does the activation at 1 µM (human GPR40) read?
A: 11%

Q: How did the activation at 1 µM (human GPR40) turn out when COc1cc(N2CCC(COc3cc(C(CC(=O)O)C4CC4)ccn3)CC2)c(C(=O)N(CC2CC2)c2cc(C)cc(C)n2)cn1 (centres unmarked) [Example 285, 3-cyclopropyl-3-(2-((1-(5-((cyclopropylmethyl) (4,6-dimethylpyridin-2-yl)carbamoyl)-2-methoxypyridin-4-yl)piperidin-4-yl)methoxy)pyridin-4-yl)propanoic acid] was run?
A: 99%

Q: With COc1ccc(C(=O)N(CC(C)(C)C)c2cncc(Cl)n2)c(N2CCC(COc3cc(C(CC(=O)O)C4CC4)ccn3)CC2)c1 (centres unmarked) [Example 180, 3-(2-((1-(2-((6-chloropyrazin-2-yl)(2,2-dimethylpropyl)carbamoyl)-5-methoxyphenyl)piperidin-4-yl)methoxy)pyridin-4-yl)-3-cyclopropylpropanoic acid] as the molecule, how does the activation at 1 µM (human GPR40) read?
A: 105%

Q: With COc1cc(F)c(C(=O)N(CC(C)(C)C)c2cccc(C)n2)c(N2CCC(COc3cc(C(CC(=O)O)C4CC4)ccn3)CC2)c1 (centres unmarked) [Example 251, 3-cyclopropyl-3-(2-((1-(2-((2,2-dimethylpropyl)(6-methylpyridin-2-yl)carbamoyl)-3-fluoro-5-methoxyphenyl)piperidin-4-yl)methoxy)pyridin-4-yl)propanoic acid] as the molecule, how does the activation at 1 µM (human GPR40) read?
A: 91%

Q: How did the activation at 1 µM (human GPR40) turn out when COc1ccc(C(=O)N(CC(C)C)c2ccccn2)c(N2CCC(COc3cccc(C(CC(=O)O)C4CC4)c3)CC2)c1 (centres unmarked) [Example 62, 3-cyclopropyl-3-(3-((1-(5-methoxy-2-((2-methylpropyl)(pyridin-2-yl)carbamoyl)phenyl)piperidin-4-yl)methoxy)phenyl)propanoic acid] was run?
A: 101%

Q: Which activation at 1 µM (human GPR40) does the source give for COc1ccc(C(=O)N(CC(F)(F)F)c2cc(C)nc(C)n2)c(N2CCC(COc3cc(C(CC(=O)O)C4CC4)ccn3)CC2)c1 (centres unmarked) [Example 238, 3-cyclopropyl-3-(2-((1-(2-((2,6-dimethylpyrimidin-4-yl) (2,2,2-trifluoroethyl)-carbamoyl)-5-methoxyphenyl)piperidin-4-yl)methoxy)pyridin-4-yl)propanoic acid] here?
A: 101%
